Data from ChEMBL document CHEMBL1151383, “Antitumor agents 50. 1 Morindaparvin-A, a new antileukemic anthraquinone, and alizarin-1-methyl ether from Morinda parvifolia, and the antileukemic activity of the related derivatives” (1982).
In brackets after ≈: the same amount, converted by molar mass. Activity calls are given as the source filed them. No cut-off for these calls is given here.

Tests used:
Type in all cases: functional
[1] = Antitumor activity against mouse CA-755 cells xenografted in mouse assessed as reduction in tumor weight at 450 mg/kg/day; parameters: scale not given: the % may be the effect or the level left
P388 [2] = assay: Antileukemic activity against mouse P388 cells xenografted in BDF1 mouse at 10 mg/kg/day relative to control
KB = assay: Cytotoxicity against human KB cells; conditions: read-out: ED50 (the source's name)
P388 [3] = assay: Cytotoxicity against mouse P388 cells; conditions: read-out: ED50 (the source's name)

Row | Compound | T/C (P388 [2]) [%] | Activity (P388 [2]) | also measured
1 | O=C1c2ccccc2C(=O)c2c1ccc(O)c2O [ATHRAQUINONES A] | 134 |  | Activity [1]: 60%
2 | O=C1c2ccccc2C(=O)c2c1ccc1c2OCO1 | 129 |  | EC50 (KB): > 10 µg/mL; EC50 (P388 [3]): 1.85 µg/mL (≈ 7.33 µM)
3 | COc1c(O)ccc2c1C(=O)c1ccccc1C2=O | 136 |  | EC50 (KB): > 10 µg/mL; EC50 (P388 [3]): 27 µg/mL (≈ 106 µM)
4 | CC(C)=CC(=O)Oc1ccc2c(c1O)C(=O)c1ccccc1C2=O |  | inactive | 
5 | CC(=O)Oc1ccc2c(c1O)C(=O)c1ccccc1C2=O |  | inactive | 
6 | O=C(/C=C/c1ccccc1)Oc1ccc2c(c1OC(=O)/C=C/c1ccccc1)C(=O)c1ccccc1C2=O |  | inactive | 
7 | CC(=O)Oc1ccc2c(c1OC(C)=O)C(=O)c1ccccc1C2=O |  | inactive | 
8 | O=C(/C=C/c1ccccc1)Oc1ccc2c(c1O)C(=O)c1ccccc1C2=O |  | inactive | 
9 | CC(C)=CC(=O)Oc1ccc2c(c1OC(=O)C=C(C)C)C(=O)c1ccccc1C2=O |  | inactive | 
10 | COc1ccc2c(c1O)C(=O)c1ccccc1C2=O | 126 |  | 
11 | O=C1c2ccccc2C(=O)c2c1ccc1c2OCCO1 | 130 |  | 
